This note sets out measurements from article PMC9527238, “Glutamate and GABAA receptor crosstalk mediates homeostatic regulation of neuronal excitation in the mammalian brain” (Signal Transduction and Targeted Therapy, 2022).

Molecules are shown by their SMILES.

Assay [1] addresses T1, α1β2E181Gγ2 GABAAR with γ2 R197E mutation (Rattus norvegicus, UniProt P18508+P62813+P63138, E206G/R235E).
T1 construct: expressed in transfected cells; host or cells: HEK293
Put plainly: Patch clamp, HEK293, mutant GABAAR. In kind it is cell-based. How it is done:
(§1) HEK293 cells were cultured in DMEM (Invitrogen) supplemented with 10% fetal bovine serum. Cells were grown to 40–60% confluence and transiently transfected using Lipofectamine 2000 (Invitrogen) with 1:0.5–1 plasmid/lipid ratio. Cells were transfected with a pBK-CMV expression vector containing a rat recombinant GABAAR α, β or γ subunits. Co-transections were done with a plasmid ratio of 1:1 αβ and 2:2:1 for αβγ subunit combinations, respectively. pcDNA3.1-GFP was also co-transfected along with GABAAR subunits as a transfected marker in order to facilitate the visualization of the transfected cells during electrophysiological experiments. Cells were re-plated on glass coverslips after 15–20 h transfection and were cultured for an additional 15–24 h before whole-cell patch-clamp recordings.
(§2) The site-directed mutagenesis of α, β or γ subunits were performed by using the QuikChange method (Stratagene). […] Wild-type or mutant subunits were transfected in HEK293 cells and subjected to electrophysiology examinations.
(§3) Whole-cell patch-clamp recordings were performed under voltage-clamp mode using an Axopatch 200B or 1D patch-clamp amplifier (Molecular Devices) on HEK293 cells and cultured neurons. Whole-cell currents were recorded at a holding potential of −60 mV, and signals were filtered at 2 kHz, digitized at 10 kHz (Digidata 1322 A). Recording pipettes (3–5 MΩ) were filled with the intracellular solution that contained (mM): CsCl 140, HEPES 10, Mg-ATP 4, QX-314 5, pH 7.20; osmolarity, 290–295 mOsm. BAPTA (10 mM) was added in the intracellular solution. The coverslips were continuously superfused with the extracellular solution containing (mM): NaCl 140, KCl 5.4, HEPES 10, MgCl2 1.0, CaCl2 1.3, glucose 20, pH 7.4; osmolarity, 305–315 mOsm.

In another assay the target is T2, α1K155Dβ2γ2E168K GABAAR (Rattus norvegicus, UniProt P18508+P62813+P63138, E206K/K182D).
T2 construct: expressed in transfected cells; host or cells: HEK293
Put plainly: Patch clamp, HEK293, mutant GABAAR. It counts as cell-based. As for the experimental part:
as §1, §2, §3
(Patch clamp records ionic current or voltage across a cell membrane.)

The next assay addresses T3, α1β2 GABAARs (Rattus norvegicus, UniProt P62813+P63138).
T3 construct: expressed in transfected cells; host or cells: HEK293
Put plainly: [3H]glutamate binding assay, plasma membranes of HEK293 cells overexpressing α1 and β2. Conditions: 40 nM [3H]glutamate + 0.4 mM non-radiolabeled competitor. As for the experimental part: For membrane preparation, transfected or non-transfected HEK293 cells were washed twice with cold PBS and harvested by scraping into 5 ml cold PBS. Cells were then centrifuged at 1200 × g for 12 min at 4 °C and medium was removed. The washing procedure was repeated twice. Then the cell pellet was re-suspended into 1 ml of 50 mM Tris-HCl buffer (pH 7.4, with protease inhibitor) and homogenized using syringes with 18-G, 21-G and 23-G needles.
To separate the membrane, the homogenate were centrifuged for 20 min at 20,000 × g at 4 °C. Then the pellet was re-suspended into 1 ml of 50 mM Tris-HCl buffer, pH 7.4 and centrifuged again. After repeating this procedure for one more time, the pellet was re-suspended into 1 ml of 50 mM Tris-HCl buffer, pH 7.4 and the protein concentration was measured.
To conduct the binding assay, 100 µg membrane enriched preparation was incubated with 40 nM [3H]-Glutamate in a total volume of 0.5 ml in 50 mM Tris-HCl buffer, pH 7.4 for 1 h on ice. […] Then the reaction was terminated by quickly filtering the solution on Whatman filter paper and washing by 3.5 ml Tris-HCl buffer. Radioactivity was measured in a Beckman liquid scintillation counter.

A further assay deals with T4, αβ3E182Gγ GABAAR (Rattus norvegicus, UniProt P62813+P63079, E207G).
T4 construct: expressed in transfected cells; host or cells: HEK293
The assay is described as follows: Patch clamp, HEK293, mutant GABAAR. Conditions: HEK293, read-out: Glutamate potentiation of GABA currents, % of control, normalized to respective wild-type receptor. It counts as cell-based. As for the experimental part:
(§4) Fig. 4 Property characterization of glutamate binding sites in HEK cells expressing wild-type or mutated αβγ GABAARs. a, b The effects of electrostatic charge and/or size of the pocket-forming residues on glutamate-induced functional modulation.
as §1, §2
as §3, with “305–315 mOsm. […] Dose–response curves were created by fitting data to Hill equation: I = Imax/[1 + (EC50/[A])^n], where I is the current, Imax is the maximum current, [A] is a given concentration of agonist, n is the Hill coefficient. […] All experiments were performed at room temperature.” for “305–315 mOsm.”

Another assay concerns the target T5, α2K104Dβγ GABAAR (Rattus norvegicus, UniProt P23576+P63138, K132D).
T5 construct: expressed in transfected cells; host or cells: HEK293
Put plainly: Patch clamp, HEK293, mutant GABAAR. The following applies: HEK293, read-out: Glutamate potentiation of GABA currents, % of control, normalized to respective wild-type receptor. It counts as cell-based. How it is done:
as §4, §1, §2
as §3, with “305–315 mOsm. […] Dose–response curves were created by fitting data to Hill equation: I = Imax/[1 + (EC50/[A])^n], where I is the current, Imax is the maximum current, [A] is a given concentration of agonist, n is the Hill coefficient. […] All experiments were performed at room temperature.” for “305–315 mOsm.”

For the next assay, the target named is T6, αβ1E182Gγ GABAAR (Rattus norvegicus, UniProt P15431+P62813, E207G).
T6 construct: expressed in transfected cells; host or cells: HEK293
Put plainly: Patch clamp, HEK293, mutant GABAAR. It counts as cell-based. Conditions: HEK293, read-out: Glutamate potentiation of GABA currents, % of control, normalized to respective wild-type receptor. As for the experimental part:
as §4, §1, §2
as §3, with “305–315 mOsm. […] Dose–response curves were created by fitting data to Hill equation: I = Imax/[1 + (EC50/[A])^n], where I is the current, Imax is the maximum current, [A] is a given concentration of agonist, n is the Hill coefficient. […] All experiments were performed at room temperature.” for “305–315 mOsm.”

The target in a further assay is T7, α2K155Dβγ GABAAR (Rattus norvegicus, UniProt P23576+P63138, K183D).
T7 construct: expressed in transfected cells; host or cells: HEK293
The assay is described as follows: Patch clamp, HEK293, mutant GABAAR. It counts as cell-based. Conditions: HEK293, read-out: Glutamate potentiation of GABA currents, % of control, normalized to respective wild-type receptor. As for the experimental part:
as §4, §1, §2
as §3, with “305–315 mOsm. […] Dose–response curves were created by fitting data to Hill equation: I = Imax/[1 + (EC50/[A])^n], where I is the current, Imax is the maximum current, [A] is a given concentration of agonist, n is the Hill coefficient. […] All experiments were performed at room temperature.” for “305–315 mOsm.”

A further assay deals with T8, α2E137Gβγ GABAAR (Rattus norvegicus, UniProt P23576+P63138, E165G).
T8 construct: expressed in transfected cells; host or cells: HEK293
Put plainly: Patch clamp, HEK293, mutant GABAAR. It counts as cell-based. Conditions: HEK293, read-out: Glutamate potentiation of GABA currents, % of control, normalized to respective wild-type receptor. How it is done: as §4, §1, §2
as §3, with “305–315 mOsm. […] Dose–response curves were created by fitting data to Hill equation: I = Imax/[1 + (EC50/[A])^n], where I is the current, Imax is the maximum current, [A] is a given concentration of agonist, n is the Hill coefficient. […] All experiments were performed at room temperature.” for “305–315 mOsm.”

In the next assay the target is T9, α1/β1/γ2 GABAAR (Rattus norvegicus, UniProt P15431+P62813).
T9 construct: expressed in transfected cells; host or cells: HEK293
The assay is described as follows: Patch clamp, HEK293, β1-containing GABAAR. It counts as cell-based. Conditions: wild-type α1/β1/γ2.

In the case of `N[C@@H](CCC(=O)O)C(=O)O` [glutamate, Glutamate], the “restored potentiation, % of wild-type α1β2γ2” value in [1] (Glu 100 μM) stood at 76.6 ± 10.4%; in assay [1] (Glu 1 mM) it was 84.5 ± 16.9%; at α1K155Dβ2γ2E168K GABAAR (100 μM glutamate) it was 71.8 ± 14.7%; on α1K155Dβ2γ2E168K GABAAR (1 mM glutamate) it was 76.4 ± 10%. For the same molecule, the “[3H]glutamate binding activity in presence of competitor” value on α1β2 GABAARs turned out to be 262.2 ± 47.8 CPM. In addition, the activity at 100 µM came out at 2.3 ± 5% on αβ3E182Gγ GABAAR (Glu 100 μM); 2.7 ± 3.1% on α2K104Dβγ GABAAR (Glu 100 μM); 2.4 ± 2% on αβ1E182Gγ GABAAR (Glu 100 μM); 6.3 ± 6.9% on α2K155Dβγ GABAAR (Glu 100 μM); 0.3 ± 3.4% on α2E137Gβγ GABAAR (Glu 100 μM). The activity at 1000 µM was 2.4 ± 7.9% on αβ3E182Gγ GABAAR (Glu 1 mM); 15.1 ± 4.4% on α2K104Dβγ GABAAR (Glu 1 mM); 7.6 ± 1% at αβ1E182Gγ GABAAR (Glu 1 mM); 5.3 ± 2.1% at α2K155Dβγ GABAAR (Glu 1 mM); 5.7 ± 6.2% at α2E137Gβγ GABAAR (Glu 1 mM). On α1/β1/γ2 GABAAR, the “potentiation of GABA-induced currents by glutamate” value is given as “could also potentiate GABA-induced currents”.
